Legend:
Type in all cases: in vivo
[1] = tested on: barnyardgrass (Echinochloa crus-galli); assay: Test A preemergence; conditions: for Barnyardgrass plant response rating (0 to 100 scale): Preemergence, 0 is no effect, 100 is complete control
Procedure, shortened: (§1)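 Seeds sprayed preemergence with a directed soil spray, or plants at 2 to 10 cm height and one- to two-leaf stage sprayed postemergence, with test chemicals in a non-phytotoxic solvent mixture containing surfactant, in loam soil–sand blend. Injury rated visually against untreated controls after about 10 d in greenhouse, 0 (no effect) to 100 (complete control).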

corn (Zea mays) [2] = assay: Test A preemergence
Procedure, shortened: as §1

[3] = tested on: crabgrass, large (Digitaria sanguinalis); assay: Test A preemergence
Procedure, shortened: as §1

[4] = tested on: giant foxtail (Setaria faberii); assay: Test A preemergence; conditions: for Foxtail, Giant plant response rating (0 to 100 scale): Preemergence, 0 is no effect, 100 is complete control
Procedure, shortened: as §1

[5] = tested on: pigweed (Amaranthus retroflexus); assay: Test A preemergence; conditions: for Pigweed plant response rating (0 to 100 scale): Preemergence, 0 is no effect, 100 is complete control
[6] = tested on: velvetleaf (Abutilon theophrasti); assay: Test A preemergence
Procedure, shortened: as §1

[7] = tested on: wheat (Triticum aestivum); assay: Test A preemergence
Procedure, shortened: as §1

[8] = tested on: barnyardgrass (Echinochloa crus-galli); assay: Test A postemergence
Procedure, shortened: as §1

corn (Zea mays) [9] = assay: Test A postemergence
Procedure, shortened: as §1

[10] = tested on: crabgrass, large (Digitaria sanguinalis); assay: Test A postemergence
Procedure, shortened: as §1

[11] = tested on: giant foxtail (Setaria faberii); assay: Test A postemergence
Procedure, shortened: as §1

[12] = tested on: morningglory (Ipomoea spp.); assay: Test A postemergence
Procedure, shortened: as §1

[13] = tested on: pigweed (Amaranthus retroflexus); assay: Test A postemergence
Procedure, shortened: as §1

[14] = tested on: velvetleaf (Abutilon theophrasti); assay: Test A postemergence
Procedure, shortened: as §1

[15] = tested on: wheat (Triticum aestivum); assay: Test A postemergence
Procedure, shortened: as §1

[16] = tested on: barnyardgrass (Echinochloa crus-galli); assay: Test C flooded paddy test; conditions: Flood, 0 is no effect, 100 is complete control
Procedure, shortened: (§2)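 Rice, small-flower umbrella sedge, ducksalad and barnyardgrass at the 2-leaf stage were flooded to 3 cm, and compound was applied into the paddy water. After 13 to 15 d in a greenhouse, plants were rated visually against controls on a 0 (no effect) to 100 (complete control) scale.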

[17] = tested on: ducksalad (Heteranthera limosa); assay: Test C flooded paddy test; conditions: Flood, 0 is no effect, 100 is complete control
Procedure, shortened: as §2

rice (Oryza sativa) = assay: Test C flooded paddy test; conditions: Flood, 0 is no effect, 100 is complete control
Procedure, shortened: as §2

[18] = tested on: sedge, umbrella (small-flower umbrella sedge, Cyperus difformis); assay: Test C flooded paddy test; conditions: Flood, 0 is no effect, 100 is complete control
Procedure, shortened: as §2

Kochia (Kochia scoparia) [19] = assay: Test A preemergence; conditions: Preemergence, 1000 g ai/ha; 0 is no effect, 100 is complete control
Procedure, shortened: as §1

[20] = tested on: ragweed (common ragweed, Ambrosia elatior); assay: Test A preemergence; conditions: Preemergence, 1000 g ai/ha; 0 is no effect, 100 is complete control
Procedure, shortened: as §1

[21] = tested on: ryegrass, Italian (Italian ryegrass, Lolium multiflorum); assay: Test A preemergence; conditions: Preemergence, 1000 g ai/ha; 0 is no effect, 100 is complete control
Procedure, shortened: as §1

[22] = tested on: Galium (catchweed bedstraw, Galium aparine); assay: Test A postemergence; conditions: Galium, post-emergence, 240 h, 1000 g ai/ha, postemergence; 0 to 100 scale, 0 no effect, 100 complete control; read-out: Plant response rating, Galium
Procedure, shortened: as §1

Kochia (Kochia scoparia) [23] = assay: Test A postemergence; conditions: Bassia scoparia, post-emergence, 240 h, 1000 g ai/ha, postemergence; 0 to 100 scale, 0 no effect, 100 complete control; read-out: Plant response rating, Kochia
Procedure, shortened: as §1

[24] = tested on: blackgrass (Alopecurus myosuroides); assay: Test A postemergence; conditions: Alopecurus myosuroides, post-emergence, 240 h, 1000 g ai/ha, postemergence; 0 to 100 scale, 0 no effect, 100 complete control; read-out: Plant response rating, Blackgrass
Procedure, shortened: as §1

[25] = tested on: ragweed (common ragweed, Ambrosia elatior); assay: Test A postemergence; conditions: Ambrosia artemisiifolia, post-emergence, 240 h, 1000 g ai/ha, postemergence; 0 to 100 scale, 0 no effect, 100 complete control; read-out: Plant response rating, Ragweed
Procedure, shortened: as §1

[26] = tested on: ryegrass, Italian (Italian ryegrass, Lolium multiflorum); assay: Test A postemergence; conditions: Lolium multiflorum, post-emergence, 240 h, 1000 g ai/ha, postemergence; 0 to 100 scale, 0 no effect, 100 complete control; read-out: Plant response rating, Ryegrass, Italian
Procedure, shortened: as §1

[27] = 125 g ai/ha, preemergence, 0 to 100 scale (0 no effect, 100 complete control)
[28] = Preemergence, 500 g ai/ha, 0 is no effect, 100 is complete control
[29] = 500 g ai/ha, postemergence, 0 to 100 scale, 0 no effect, 100 complete control
[30] = Postemergence, 125 g ai/ha, visual injury, 0 to 100 scale (0 no effect, 100 complete control), approx. 10 d

O=C1NCC(c2cccnc2)C1C(=O)Nc1ccccc1F (racemic) [Compound 363]
Plant response rating, Barnyardgrass [1, 27]: 0 | Barnyardgrass plant response rating (0 to 100 scale) ([1]; 500 g ai/ha): 0 | Plant response rating, Corn (corn (Zea mays) [2]; [27]): 0 | Corn plant response rating (0 to 100 scale) (corn (Zea mays) [2]; [28]): 0 | Plant response rating, Crabgrass, Large [3, 27]: 0 | Crabgrass, Large plant response rating (0 to 100 scale) [3, 28]: 0 | Plant response rating, Foxtail, Giant [4, 27]: 0 | Foxtail, Giant plant response rating (0 to 100 scale) ([4]; 500 g ai/ha): 0 | Plant response rating, Pigweed [5, 27]: 0 | Pigweed plant response rating (0 to 100 scale) ([5]; 500 g ai/ha): 0 | Plant response rating, Velvetleaf [6, 27]: 0 | Velvetleaf plant response rating (0 to 100 scale) [6, 28]: 0 | Plant response rating, Wheat [7, 27]: 0 | Wheat plant response rating (0 to 100 scale) [7, 28]: 0 | Plant response rating, Barnyardgrass [8, 29]: 0 | Plant response rating, Barnyardgrass [8, 30]: 0 | Plant response rating, Corn (corn (Zea mays) [9]; [29]): 0 | Plant response rating, Corn (corn (Zea mays) [9]; [30]): 0 | Plant response rating, Crabgrass, Large [10, 29]: 0 | Plant response rating, Crabgrass, Large [10, 30]: 0 | Plant response rating, Foxtail, Giant [11, 29]: 0 | Plant response rating, Foxtail, Giant [11, 30]: 0 | Plant response rating, Morningglory [12, 29]: 0 | Plant response rating, Morningglory [12, 30]: 0 | Plant response rating, Pigweed [13, 29]: 0 | Plant response rating, Pigweed [13, 30]: 0 | Plant response rating, Velvetleaf [14, 29]: 10 | Plant response rating, Velvetleaf [14, 30]: 0 | Plant response rating, Wheat [15, 29]: 0 | Plant response rating, Wheat [15, 30]: 0 | Plant response rating (scale of 0 to 100), Barnyardgrass ([16]; 31 g ai/ha): 0 | Plant response rating (scale of 0 to 100), Barnyardgrass ([16]; 62 g ai/ha): 0 | Plant response rating (scale of 0 to 100), Barnyardgrass ([16]; 125 g ai/ha): 0 | Plant response rating (scale of 0 to 100), Barnyardgrass ([16]; 250 g ai/ha): 0 | Plant response rating (scale of 0 to 100), Ducksalad ([17]; 31 g ai/ha): 0 | Plant response rating (scale of 0 to 100), Ducksalad ([17]; 62 g ai/ha): 0 | Plant response rating (scale of 0 to 100), Ducksalad ([17]; 125 g ai/ha): 0 | Plant response rating (scale of 0 to 100), Ducksalad ([17]; 250 g ai/ha): 0 | Plant response rating (scale of 0 to 100), Rice (rice (Oryza sativa); 31 g ai/ha): 0 | Plant response rating (scale of 0 to 100), Rice (rice (Oryza sativa); 62 g ai/ha): 0 | Plant response rating (scale of 0 to 100), Rice (rice (Oryza sativa); 125 g ai/ha): 0 | Plant response rating (scale of 0 to 100), Rice (rice (Oryza sativa); 250 g ai/ha): 0 | Plant response rating (scale of 0 to 100), Sedge, Umbrella ([18]; 31 g ai/ha): 0 | Plant response rating (scale of 0 to 100), Sedge, Umbrella ([18]; 62 g ai/ha): 0 | Plant response rating (scale of 0 to 100), Sedge, Umbrella ([18]; 125 g ai/ha): 0 | Plant response rating (scale of 0 to 100), Sedge, Umbrella ([18]; 250 g ai/ha): 0

O=C(CN1C[C@H](c2cc(F)cc(F)c2)[C@@H](C(=O)Nc2cccc(F)c2F)C1=O)c1ccccc1 [Compound 784]
Kochia plant response rating (0 to 100 scale) (Kochia (Kochia scoparia) [19]): 0 | Barnyardgrass plant response rating (0 to 100 scale) ([1]; 1000 g ai/ha): 80 | Foxtail, Giant plant response rating (0 to 100 scale) ([4]; 1000 g ai/ha): 90 | Pigweed plant response rating (0 to 100 scale) ([5]; 1000 g ai/ha): 0 | Ragweed plant response rating (0 to 100 scale) [20]: 0 | Ryegrass, Italian plant response rating (0 to 100 scale) [21]: 0 | pest or weed control at 1000 g/ha [22]: 0% | pest or weed control at 1000 g/ha (Kochia (Kochia scoparia) [23]): 0% | pest or weed control at 1000 g/ha ([8]; Echinochloa crus-galli, post-emergence, 240 h, 1000 g ai/ha, postemergence, 0 to 100 scale, 0 no effect, 100 complete control, read-out: Plant response rating, Barnyardgrass): 90% | pest or weed control at 1000 g/ha [24]: 20% | Corn plant response rating (crop injury, 0 = no effect, 100 = complete kill) at 1000 g/ha (corn (Zea mays) [9]; Zea mays, post-emergence, 240 h, 1000 g ai/ha, postemergence, 0 to 100 scale, 0 no effect, 100 complete control): 0% | pest or weed control at 1000 g/ha ([11]; Setaria faberi, post-emergence, 240 h, 1000 g ai/ha, postemergence, 0 to 100 scale, 0 no effect, 100 complete control, read-out: Plant response rating, Foxtail, Giant): 90% | pest or weed control at 1000 g/ha ([12]; Ipomoea, post-emergence, 240 h, 1000 g ai/ha, postemergence, 0 to 100 scale, 0 no effect, 100 complete control, read-out: Plant response rating, Morningglory): 0% | pest or weed control at 1000 g/ha ([13]; Amaranthus retroflexus, post-emergence, 240 h, 1000 g ai/ha, postemergence, 0 to 100 scale, 0 no effect, 100 complete control, read-out: Plant response rating, Pigweed): 0% | pest or weed control at 1000 g/ha [25]: 0% | pest or weed control at 1000 g/ha [26]: 0% | plant injury at 1000 g/ha ([15]; Triticum aestivum, post-emergence, 240 h, 1000 g ai/ha, postemergence, 0 to 100 scale, 0 no effect, 100 complete control, read-out: Plant response rating, Wheat): 0%

— patent US12077503B2, “Substituted cyclic amides and their use as herbicides” (FMC CORPORATION, priority 2015, dated 2024)
